Assay results reported in ChEMBL document CHEMBL1777709, “Asymmetric synthesis and biological evaluations of (+)- and (-)-6-dimethoxymethyl-1,4-dihydropyridine-3-carboxylic acid derivatives blocking N-type calcium channels” (Bioorg Med Chem Lett, 2011).

Assays:
[1] = Inhibition of Voltage-dependent N-type calcium channel- mediated calcium influx in human IMR-32 cells; type: cell-based
Rattus norvegicus = assay: Ratio of inhibition of L-type calcium channel to inhibition of N-type calcium channel in rat hypertension model at 3 ug/ml, iv; type: functional
[2] = target: Voltage-gated L-type calcium channel (Rattus norvegicus, UniProt P22002+Q02485+P27732); assay: Inhibition of Voltage-dependent L-type calcium channel in rat thoracic aorta ring; type: tissue-based

SMILES | IC50 ([1]; Homo sapiens, IMR-32) | IC50 ([1]; imr-32) | IC50 [2] | Ratio (Rattus norvegicus)
COCCOC(=O)C1=C(C)NC(C)=C(C(=O)OC/C=C/c2ccccc2)C1c1cccc([N+](=O)[O-])c1 (configuration not stated) [CILNIDIPINE] | 1600 nM |  |  | 1
CC1=C(C(=O)O)C(c2cccc([N+](=O)[O-])c2)C(C(=O)OC/C=C/c2ccccc2)=C(C)N1 (racemic) | 3500 nM |  |  | 
COC(OC)C1=C(C(=O)OC/C=C/c2ccccc2)C(c2cccc(Cl)c2)C(C(=O)O)=C(C)N1 (single isomer, unassigned; (+)) |  | 2600 nM | 13200 nM | 

More lines, main results first:

IC50 ([1]; Homo sapiens, IMR-32) | IC50 ([1]; imr-32) | IC50 [2] | SMILES | Ratio (Rattus norvegicus)
3000 nM |  |  | COC(OC)C1=C(C(=O)OC/C=C/c2ccccc2)C(c2cccc(Cl)c2)C(C(=O)O)=C(C)N1 (racemic) | 
 |  | 1800 nM | COC(OC)C1=C(C(=O)OC/C=C/c2ccccc2)C(c2cccc(Cl)c2)C(C(=O)O)=C(C)N1 (stereo in doubt; (-)-3) | 
